Assay results reported in patent US5840684A, “Glycopeptide antibiotic derivatives” (Eli Lilly and Company, priority 1995, dated 1998).
Values after ≈ are worked out from the molar mass of the structure shown.

How the values were obtained:
Entercoccus faecium 2041 = assay: broth micro-dilution MIC; assay type: cell-based; conditions: Entercoccus faecium 2041
Experimental: (§1) The formula I compounds have in vitro and in vivo activity against Gram-positive pathogenic bacteria. The MIC's were determined using a standard broth micro-dilution assay.

[1] = test system: Streptococcus pneumoniae P1; assay: broth micro-dilution MIC; assay type: cell-based
Experimental: as §1

[2] = test system: Staphylococcus haemolyticus 105; assay: broth micro-dilution MIC; assay type: cell-based
Experimental: as §1

[3] = test system: Staphylococcus haemolyticus 415; assay: broth micro-dilution MIC; assay type: cell-based
Experimental: as §1

[4] = test system: Enterococcus gallinarum 245; assay: broth micro-dilution MIC; assay type: cell-based; conditions: Enterococcus gallinarum 245
Experimental: as §1

[5] = test system: Staphylococcus epidermidis 270; assay: broth micro-dilution MIC; assay type: cell-based
Experimental: as §1

Entercoccus faecium 180 = assay: broth micro-dilution MIC; assay type: cell-based; conditions: Entercoccus faecium 180
Experimental: as §1

[6] = test system: Staphylococcus aureus S13E; assay type: cell-based
Experimental: (§2) The MIC's were determined using a standard broth micro-dilution assay.

[7] = test system: Staphylococcus aureus SA1199B; assay type: cell-based
Experimental: as §2

[8] = test system: Entercoccus faecium 180-1; assay: broth micro-dilution MIC; assay type: cell-based
Experimental: as §2

[9] = test system: Staphylococcus aureus X400; assay: broth micro-dilution MIC; assay type: cell-based
Experimental: as §2

[10] = test system: Staphylococcus aureus SA1199A; assay: broth micro-dilution MIC; assay type: cell-based
Experimental: as §2

[11] = test system: Streptococcus pyogenes C203; assay: broth micro-dilution MIC; assay type: cell-based
Experimental: as §2

[12] = test system: Staphylococcus aureus 489; assay: broth micro-dilution MIC; assay type: cell-based
Experimental: as §2

[13] = test system: Staphylococcus aureus 491; assay: broth micro-dilution MIC; assay type: cell-based
Experimental: as §2

[14] = test system: Staphylococcus aureus 447; assay: broth micro-dilution MIC; assay type: cell-based
Experimental: as §2

[15] = test system: Staphylococcus aureus 446; assay: broth micro-dilution MIC; assay type: cell-based
Experimental: as §2

Entercoccus faecium 276 = assay: broth micro-dilution MIC; assay type: cell-based
Experimental: as §2

[16] = test system: Staphylococcus aureus SA1199; assay: broth micro-dilution MIC; assay type: cell-based
Experimental: as §2

[17] = test system: vancomycin-susceptible enterococci; assay: broth micro-dilution, mean geometric MIC; assay type: cell-based, Enterococcus faecium and Enterococcus faecalis; conditions: enterococci, 24-hour incubation
[18] = test system: vancomycin-resistant enterococci; assay: broth micro-dilution, mean geometric MIC; assay type: cell-based, Enterococcus faecium and Enterococcus faecalis; conditions: enterococci, 24-hour incubation
[19] = test system: Staphylococcus aureus X778; assay: broth micro-dilution MIC; assay type: cell-based
Experimental: as §2

Row | SMILES | MIC (Entercoccus faecium 2041) | MIC [1] | MIC [2] | MIC [3] | MIC [4] | MIC [5] | MIC (Entercoccus faecium 180) | MIC [6] | MIC [7] | MIC [8] | MIC [9] | MIC [10] | MIC [12] | MIC [13] | MIC [14] | MIC [15] | MIC (Entercoccus faecium 276) | MIC [16] | mean geometric MIC, Vancomycin Sensitive Strains [17] | mean geometric MIC, Vancomycin Resistant Strains [18] | also measured
1 | CNC(CC(C)C)C(=O)NC1C(=O)NC(CC(N)=O)C(=O)NC2C(=O)NC3C(=O)NC(C(=O)NC(C(=O)O)c4cc(O)cc(O)c4-c4cc3ccc4O)C(OC3CC(C)(N)C(O)C(C)O3)c3ccc(c(Cl)c3)Oc3cc2cc(c3OC2OC(CO)C(O)C(O)C2OC2CC(C)(NCc3ccc4ccc5cccc6ccc3c4c56)C(O)C(C)O2)Oc2ccc(cc2Cl)C1O (centres unmarked) [Compound 16] | 0.5 µg/mL (≈ 0.277 µM) | ≤ 0.06 µg/mL | 8 µg/mL (≈ 4.43 µM) | 4 µg/mL (≈ 2.21 µM) | 1 µg/mL (≈ 0.553 µM) | 2 µg/mL (≈ 1.11 µM) | 1 µg/mL (≈ 0.553 µM) | 1 µg/mL (≈ 0.553 µM) | 1 µg/mL (≈ 0.553 µM) | 0.125 µg/mL (≈ 0.0692 µM) | 0.5 µg/mL (≈ 0.277 µM) | ≤ 0.06 µg/mL | 0.5 µg/mL (≈ 0.277 µM) | 1 µg/mL (≈ 0.553 µM) | 4 µg/mL (≈ 2.21 µM) | 4 µg/mL (≈ 2.21 µM) | 2 µg/mL (≈ 1.11 µM) | 2 µg/mL (≈ 1.11 µM) | 0.67 µg/mL |  | MIC [11]: ≤ 0.06 µg/mL
2 | CNC(CC(C)C)C(=O)NC1C(=O)NC(CC(N)=O)C(=O)NC2C(=O)NC3C(=O)NC(C(=O)NC(C(=O)O)c4cc(O)cc(O)c4-c4cc3ccc4O)C(OC3CC(C)(N)C(O)C(C)O3)c3ccc(c(Cl)c3)Oc3cc2cc(c3OC2OC(CO)C(O)C(O)C2OC2CC(C)(NCc3ccc(Oc4ccccc4Cl)c([N+](=O)[O-])c3)C(O)C(C)O2)Oc2ccc(cc2Cl)C1O (centres unmarked) [Compound 88] | ≤ 0.06 µg/mL | ≤ 0.06 µg/mL | 1 µg/mL (≈ 0.539 µM) | 2 µg/mL (≈ 1.08 µM) | ≤ 0.06 µg/mL | 1 µg/mL (≈ 0.539 µM) | 0.125 µg/mL (≈ 0.0674 µM) | 1 µg/mL (≈ 0.539 µM) | 1 µg/mL (≈ 0.539 µM) | ≤ 0.06 µg/mL | ≤ 0.06 µg/mL | ≤ 0.06 µg/mL | 0.5 µg/mL (≈ 0.27 µM) | 0.5 µg/mL (≈ 0.27 µM) |  |  | ≤ 0.06 µg/mL | 1 µg/mL (≈ 0.539 µM) | 0.055 µg/mL | 1.7 µg/mL | MIC [19]: 0.5 µg/mL (≈ 0.27 µM); MIC [11]: ≤ 0.06 µg/mL
3 | CN[C@H](CC(C)C)C(=O)N[C@H]1C(=O)N[C@@H](CC(N)=O)C(=O)N[C@H]2C(=O)N[C@H]3C(=O)N[C@H](C(=O)N[C@H](C(=O)O)c4cc(O)cc(O)c4-c4cc3ccc4O)[C@H](O[C@H]3C[C@](C)(N)[C@@H](O)[C@H](C)O3)c3ccc(c(Cl)c3)Oc3cc2cc(c3O[C@@H]2O[C@H](CO)[C@@H](O)[C@H](O)[C@H]2O[C@H]2C[C@](C)(NCc3ccc(-c4cccc(F)c4)cc3)[C@@H](O)[C@H](C)O2)Oc2ccc(cc2Cl)[C@H]1O [Compound 92] | 0.125 µg/mL (≈ 0.0704 µM) | ≤ 0.06 µg/mL | 2 µg/mL (≈ 1.13 µM) | 2 µg/mL (≈ 1.13 µM) | 2 µg/mL (≈ 1.13 µM) | 1 µg/mL (≈ 0.563 µM) | 0.125 µg/mL (≈ 0.0704 µM) | 0.125 µg/mL (≈ 0.0704 µM) | 0.5 µg/mL (≈ 0.281 µM) | ≤ 0.06 µg/mL | 0.5 µg/mL (≈ 0.281 µM) | ≤ 0.06 µg/mL | ≤ 0.06 µg/mL | 1 µg/mL (≈ 0.563 µM) | 0.5 µg/mL (≈ 0.281 µM) | 2 µg/mL (≈ 1.13 µM) | 0.125 µg/mL (≈ 0.0704 µM) | 1 µg/mL (≈ 0.563 µM) | 0.082 µg/mL | 1.7 µg/mL | MIC [11]: ≤ 0.06 µg/mL
4 | CNC(CC(C)C)C(=O)NC1C(=O)NC(CC(N)=O)C(=O)NC2C(=O)NC3C(=O)NC(C(=O)NC(C(=O)O)c4cc(O)cc(O)c4-c4cc3ccc4O)C(OC3CC(C)(N)C(O)C(C)O3)c3ccc(c(Cl)c3)Oc3cc2cc(c3OC2OC(CO)C(O)C(O)C2OC2CC(C)(NCc3ccc(-c4ccccc4)cc3F)C(O)C(C)O2)Oc2ccc(cc2Cl)C1O (centres unmarked) [Compound 206] | 0.25 µg/mL (≈ 0.141 µM) | ≤ 0.06 µg/mL | 0.5 µg/mL (≈ 0.281 µM) | 1 µg/mL (≈ 0.563 µM) | 1 µg/mL (≈ 0.563 µM) | 0.25 µg/mL (≈ 0.141 µM) | ≤ 0.06 µg/mL | 1 µg/mL (≈ 0.563 µM) | 1 µg/mL (≈ 0.563 µM) | ≤ 0.06 µg/mL | 0.5 µg/mL (≈ 0.281 µM) | ≤ 0.06 µg/mL | 1 µg/mL (≈ 0.563 µM) | ≤ 0.06 µg/mL | 0.5 µg/mL (≈ 0.281 µM) | 0.5 µg/mL (≈ 0.281 µM) | ≤ 0.06 µg/mL | 0.5 µg/mL (≈ 0.281 µM) | 0.095 µg/mL | 1.7 µg/mL | MIC [19]: 0.5 µg/mL (≈ 0.281 µM)
5 | CNC(CC(C)C)C(=O)NC1C(=O)NC(CC(N)=O)C(=O)NC2C(=O)NC3C(=O)NC(C(=O)NC(C(=O)O)c4cc(O)cc(O)c4-c4cc3ccc4O)C(OC3CC(C)(N)C(O)C(C)O3)c3ccc(c(Cl)c3)Oc3cc2cc(c3OC2OC(CO)C(O)C(O)C2OC2CC(C)(NCc3ccc(-c4ccc([N+](=O)[O-])cc4)c([N+](=O)[O-])c3)C(O)C(C)O2)Oc2ccc(cc2Cl)C1O (centres unmarked) [Compound 212] | ≤ 0.06 µg/mL | ≤ 0.06 µg/mL | 1 µg/mL (≈ 0.541 µM) | 1 µg/mL (≈ 0.541 µM) | 1 µg/mL (≈ 0.541 µM) | ≤ 0.06 µg/mL | ≤ 0.06 µg/mL | ≤ 0.06 µg/mL | ≤ 0.06 µg/mL | ≤ 0.06 µg/mL | ≤ 0.06 µg/mL | ≤ 0.06 µg/mL | ≤ 0.06 µg/mL | ≤ 0.06 µg/mL |  | ≤ 0.06 µg/mL | ≤ 0.06 µg/mL | ≤ 0.06 µg/mL | 0.036 µg/mL | 0.50 µg/mL | MIC [19]: ≤ 0.06 µg/mL
6 | CNC(CC(C)C)C(=O)NC1C(=O)NC(CC(N)=O)C(=O)NC2C(=O)NC3C(=O)NC(C(=O)NC(C(=O)O)c4cc(O)cc(O)c4-c4cc3ccc4O)C(OC3CC(C)(N)C(O)C(C)O3)c3ccc(c(Cl)c3)Oc3cc2cc(c3OC2OC(CO)C(O)C(O)C2OC2CC(C)(NCCCCCCCCCCCCc3ccccc3)C(O)C(C)O2)Oc2ccc(cc2Cl)C1O (centres unmarked) [Compound 234] | 0.5 µg/mL (≈ 0.272 µM) |  | 8 µg/mL (≈ 4.36 µM) | 16 µg/mL (≈ 8.71 µM) | 16 µg/mL (≈ 8.71 µM) | 4 µg/mL (≈ 2.18 µM) | 1 µg/mL (≈ 0.544 µM) | 8 µg/mL (≈ 4.36 µM) | 8 µg/mL (≈ 4.36 µM) | 1 µg/mL (≈ 0.544 µM) | 8 µg/mL (≈ 4.36 µM) | 2 µg/mL (≈ 1.09 µM) | 4 µg/mL (≈ 2.18 µM) | 8 µg/mL (≈ 4.36 µM) | 8 µg/mL (≈ 4.36 µM) | 4 µg/mL (≈ 2.18 µM) | 4 µg/mL (≈ 2.18 µM) | 8 µg/mL (≈ 4.36 µM) | 2 µg/mL | 2 µg/mL | MIC [19]: 4 µg/mL (≈ 2.18 µM)
